Results on 17 compounds are retold here after patent US20130296346A1, “DIPHENYL-AMINE DERIVATIVES: USES, PROCESS OF SYNTHESIS AND PHARMACEUTICAL COMPOSITIONS” (Faes Farma, S.A., priority 2010, published 2013).

Data set [1] relates to TNFr. In words: TNF-R transfectant, NF-kB reporter gene (secreted phosphatase). Format: cell-based. From the text:
(§1) The secreted phosphatase sPase was used as reporter for its ability to process the luminiscent or colorimetric substrates from the culture based in the hydrolysis of substrates chemically similar to nitrophenol phosphate. Five generation of transfectants were developed as described: • 1. IL-4R. Chains of Type II IL-4-r, which is the common one within non-haematopoietic cells were transfected, as well as STAT6 which the key molecule in the nuclear signalling route by IL-4-r, and finally a reporter gene to measure the response to STAT6 was introduced. Endogenously, cells had Janus Associated Kinase 1 (JAK1) which was previously known to be associated with STAT6 via p62/aPKC. • 2. IL-6R. Chains of IL-6R were transfected and a reporter gene able to measure the response to STAT3 was introduced. As it is well known, STAT3 is a transductional molecule and a nuclear factor physiologically produced in the standard responses IL-6/IL-6R. • 3. TNF-R. In this case, a reporter gene able to measure the response to NF-kB was introduced, as this is the transductional molecule and the nuclear factor physiologically produced in response to TNF-alpha. […] LPS-Receptor complex represented by TLR4/MD2/CD14. Reporter genes with elements of response to NFkB were used as in the previous case, but the selectivity was achieved by the co-transfection of components of the LPS-R complex. The LPS is captured from the serum through the union to one plasma protein known as LBP, which transfers the LPS to the membrane protein CD14. The LBP inclusion accounts for an increase of 1000-fold the sensitivity versus media or cultures LBP-frees. The molecule CD14 is not an LPS-receptor but a module of the receptor complex which captures LBP, allowing the transference of LPS in the cellular surface to MD2. CD14 has not a cytoplasmic tail and it is not able to be a signal transducer but it substantially increases the sensitivity of the system. In a similar way, MD2 is not a signal transducer but the combination of CD14 and MD2 allows the increase of the sensitivity by 10000-fold. • 5. IL-1R. Reporter genes with elements of response to NFkB were used as in the previous case, but the selectivity was achieved by the expression of components belonging to the receptor complex IL-1R. IL-1R belongs to a receptors superfamily which uses TIR transduction domains (Toll-like IL-1R). It is known that the IL-1R route activates mitogen-activated protein kinases (MAPK) of JNK type which in turn generate nuclear factors transcriptionally active as AP-1. The reporter gene includes NFkB and AP-1 sites chained in order to simulate the physiological situation.
(In a reporter assay the amount or activity of a reporter protein is the signal.)

Data set [2] deals with IL6r. In words: IL-6R transfectant, STAT3 reporter gene (secreted phosphatase). The format is cell-based.
Excerpt: as §1

The test system of data set [3] is IL4r. In words: IL-4R transfectant, STAT6 reporter gene (secreted phosphatase). The format is cell-based.
Excerpt: as §1

Data set [4] concerns B16-F1. In words: In vitro cytotoxicity, SRB method. Conditions: Mus musculus, B16-F1 melanoma, 72 hours. Format: cell-based. Here is the method: (§2) SRB method was followed (Wieland, V., et al. Sulforhodamine B Assay and Chemosensitivity. Chemosensitivity, volume 1, In Vitro Assays. Methods in Molecular Medicine. Edited by Rosalyn D. Blumenthal. Humana Press, Totowa, N.J., 2005).
(§3) Cells were seeded in microplates of 96 wells. In each well, according to the cell type, specific number of cells were seeded in 200 microliters. In these conditions, cells were cultured for 3 days, with the aim of reaching their exponential phase of growing to assay the product cytotoxicity. The product concentrations were prepared just the day of treatments, after thawing the stock solutions (10 mM). After harvesting the microplate with the seeded cells for 3 days, the culture medium was discarded and replaced by 150 μl of fresh medium in each well. This was followed by the addition of 50 μl of the corresponding product dilution so as the final concentration in the final volume of 200 microliters in each well was the one scheduled. The products, at the assayed concentrations, were in contact with the cell growing monolayer for 72 hours and incubated at 37° C., 5% CO2. Finally, cells were growth arrested adding […] of cold TCA (Trichloroacetic acid) 50%, (final concentration of 10% in the well). Microplate was then maintained at 4° C. for over 60 min to fix cellular proteins till initiation of washing and staining with SRB.
(§4) Cell viability (%)=(Cell population of the treated well/Maximum cell population of the Standard curve)×100.
(§5) Mean viability values for each concentration were calculated from the values obtained for each well in which that concentration was assayed.
For orientation: Sulforhodamine B stains cellular protein and so reports cell mass.

In data set [5] the test system is HCT116. In words: In vitro cytotoxicity, SRB method. Format: cell-based. Conditions: Homo sapiens, HCT-116, HCT116 colon cancer, 72 hours. The procedure:
as §2, §3, §4, §5

Data set [6] has as its system HepG2. In words: In vitro cytotoxicity, SRB method. The format is cell-based. Particulars: Homo sapiens, HepG2 hepatoma, 72 hours. Here is the method:
as §2, §3, §4, §5

Data set [7] concerns Malm-3M. In words: In vitro cytotoxicity, SRB method. Format: cell-based. Particulars: Malm-3M melanoma, 72 hours. The procedure: as §2, §3, §4, §5
Data set [8] concerns NCI-H460. In words: In vitro cytotoxicity, SRB method. Format: cell-based. Conditions: Homo sapiens, NCI-H460 lung, 72 hours. Here is the method:
as §2, §3, §4, §5

Data set [9] concerns SF268. In words: In vitro cytotoxicity, SRB method. Format: cell-based. Particulars: Homo sapiens, SF-268, SF268 glioblastoma, 72 hours. The procedure: as §2, §3, §4, §5
In data set [10] the test system is SW260. In words: In vitro cytotoxicity, SRB method. Conditions: SW260 colon cancer, 72 hours. The format is cell-based. The procedure: as §2, §3, §4, §5
A short description of data set [11]: Cytotoxicity for human non-tumoral cells, XTT. Format: cell-based. Conditions: HUVEC cells (primary, from human cords). Here is the method:
(§6) The cytotoxicity of the compounds for human non-tumoral cells was studied in fibroblasts, HUVEC cells and resting PBLs (Peripheral Blood lymphocytes).
HUVEC cells were obtained by treating human cords with collagenase type I, […] in Hank's medium incubating 20 minutes at 37° C. Cells were collected afterwards and cultivated in medium M199 with supplements of 20% FBS, 1% P/S and 25 mg/500 ml of medium ECGF, Cells were grown on a 0.2% gelatin matrix.
(§7) Distinct amounts of exponentially growing cells were seeded in 96-well flat-bottomed microtiter plates in a final volume of 100 μl were seeded in 96-well flat-bottomed microtiter plates, and incubated at 37° C. in a humidified atmosphere of 5% CO2/95% air for 24 h to allow the cells attach to the plates. Then, cells were incubated with different concentrations of the assayed compound at 37° C. under the 5% CO2/95% air atmosphere for 72 h. Cell proliferation was quantified using the XTT cell proliferation kit (Roche Molecular Biochemicals, Mannheim, Germany) following the manufacturer's instructions. Briefly, a freshly prepared mixture solution (50 μl) of XTT labelling reagent and PMS (N-methyldibenzopyrazine methyl sulfate) electron coupling reagent was added to each well. The resulting mixtures were further incubated for 4 h in a humidified atmosphere (37° C., 5% CO2), and the absorbance of the formazan product generated was measured with a microtiter plate reader at a test wavelength of 490 nm and a reference wavelength of 655 nm. The IC50 (50% inhibitory concentration) was then calculated as the drug concentration causing a 50% inhibition of cell proliferation. Data are shown as mean values of four independent experiments each performed in triplicate.
For orientation: Tetrazolium dyes change colour on reduction, which living cells bring about.

For data set [12], the system named is resting human PBLs. In words: Apoptosis of resting human PBLs. Format: cell-based. Here is the method:
To isolate normal peripheral blood lymphocytes (PBLs), mononuclear cells were obtained from fresh human peripheral blood from healthy volunteers by centrifugation on Ficoll-Hypaque density gradients, washed with phosphate-buffered saline (PBS), and resuspended in RPMI-1640 medium containing 10% (v/v) heat-inactivated FBS, 2 mM L-glutamine, 100 U/ml penicillin, and 100 μg/ml streptomycin as described (Cabaner et al. Br. J. Pharmacol 127:813-825.1999). Monocytes were depleted by culture dish adherence after overnight incubation. Nonadherent cells (lymphocytes) were washed with PBS and collected. PBL preparations were typically 70-75% CD3^+, 24-29% CD 19^+, and less than 0.4% CD 14^+.

Data set [13] in a line: Cytotoxicity for human non-tumoral cells, XTT. The format is cell-based. Conditions: Fibroblasts. The procedure:
as §6, §7

The structures appear in SMILES notation. Counter-ions that a name gives are not always drawn.

Usually melting point stands for the temperature, or range, at which the solid turns liquid. As a reminder, the IC50 is the concentration that gives 50% inhibition. A high value points to weaker potency in that assay.

With `Cl.FC(F)(F)c1ccc(CNCCCC=C(c2ccccc2)c2ccccc2)cc1`, the melting point is 121.4 to 122.7 °C.
On the same count and under the same terms, then `Cl.FC(F)(F)Oc1ccc(CNCCC=C(c2ccccc2)c2ccccc2)cc1`, with 126 to 128 °C; and `Cl.FC(F)(F)Oc1ccc(CNCCCCC=C(c2ccccc2)c2ccccc2)cc1`, with 109 to 110.5 °C.
Still for that read-out and setting: for `COc1ccc(CNCCCC=C(c2ccccc2)c2ccccc2)cc1.Cl` the value was 69.2 to 73.8 °C.
Same read-out and setting: for `C(CCCNCc1ccsc1)=C(c1ccccc1)c1ccccc1.Cl` the value was 108 to 109.7 °C; for `C(CCCNCc1ccccn1)=C(c1ccccc1)c1ccccc1.Cl`, 125 to 126.9 °C.
In turn, `Cl.FC(F)(F)Oc1cccc(CNCCCC=C(c2ccccc2)c2ccccc2)c1` gave a melting point of 102.4 to 104 °C.
`Cl.FC(F)(F)Oc1ccccc1CNCCCC=C(c1ccccc1)c1ccccc1` [Compound 10, (5,5-diphenyl-pent-4-enyl)-(2-trifluoromethoxybenzyl)amine hydrochloride] showed a melting point of 109 to 110.7 °C. Also, the “Inhibition of TNFr” value in data set [1] is “Inhibition of TNFr up 30%”. Further, the “Inhibition of IL6r” value in [2] was “Inhibition of IL6r down 5%”. The “Inhibition of IL4r” value in [3] is “Inhibition of IL4r total”.
The compound `C(CCNCc1cccs1)=C(c1ccccc1)c1ccccc1.Cl` [Compound 13, (4,4-diphenyl-but-3-enyl)-thiophen-2-ylmethyl-amine hydrochloride] yielded a melting point of 163 to 165.5 °C. Also, the “Inhibition of TNFr” value in [1] was “Inhibition of TNFr total”. Also, in data set [2], the “Inhibition of IL6r” value was “Inhibition of IL6r total”. Besides, the “Inhibition of IL4r” value in data set [3] was “Inhibition of IL4r total”.
For `Cc1nc2ccccc2n1CCCC=C(c1ccccc1)c1ccccc1` [Compound 27], the “Inhibition of TNFr” value in data set [1] is listed as “Inhibition of TNFr total”. The “Inhibition of IL6r” value in data set [2] is given as “Inhibition of IL6r low-75%”. The “Inhibition of IL4r” value in data set [3] is given as “Inhibition of IL4r total”.
For `C(CCCn1ccnc1)=C(c1ccccc1)c1ccccc1` [Compound 28, 1-(5,5-Diphenyl-pent-4-enyl)-1H-imidazole] the same measures were “Inhibition of TNFr 25%”, “Inhibition of IL6r down-low (*)” and “Inhibition of IL4r 75%”.
`Clc1nc(NCCCCC=C(c2ccccc2)c2ccccc2)c2nc[nH]c2n1` [Compound 29, (2-Chloro-9H-purin-6-yl)-(6,6-diphenyl-hex-5-enyl)-amine] returned a melting point of 205.7 to 207 °C.
`C(CCCCNc1ncnc2[nH]ncc12)=C(c1ccccc1)c1ccccc1` [Compound 40, (6,6-Diphenyl-hex-5-enyl)-(1H-pyrazolo[3,4-d]pyrimidin-4-yl)amine]: the IC50 in data set [4] was 9 µM; in data set [5] it was 5 to 50 µM; in data set [6] it was 5 to 50 µM; in data set [7], 30 µM; in data set [8], 8.1 µM; in data set [9] it was 33 µM. Also, the half-maximal inhibitory concentration (IC50) in data set [10] came to 50 µM. For the same compound, the IC50 at 72 h in data set [11] came to 36 µM.
On to `C(CCCNc1ncnc2[nH]ncc12)=C(c1ccccc1)c1ccccc1` [Compound 41, (5,5-Diphenyl-pent-4-enyl)-(1H-pyrazolo[3,4-d]pyrimidin-4-yl)amine], for which the concentration for half-maximal inhibition (IC50) in data set [4] was 6 µM; in [5], 5 to 50 µM; in data set [6] it was 5 to 50 µM; in data set [7], 44 µM; in [8], 2 µM; in data set [9], 17 µM. Further, the half-maximal inhibitory concentration (IC50) in data set [10] lay in the range of 5 to 50 µM.
For the compound `CC(C)n1ncc2c(NCCCCC=C(c3ccccc3)c3ccccc3)ncnc21` [Compound 44, (6,6-Diphenyl-hex-5-enyl)-(1-isopropyl-1H-pyrazolo[3,4-d]pyrimidin-4-yl)amine hydrochloric salt], the concentration for half-maximal inhibition (IC50) in data set [4] is 8 µM; in data set [5] it was 5 to 50 µM; in [6], 5 to 50 µM; in [7] it was 40 µM; in data set [8], 9.4 µM; in [9], 31 µM. Besides, the IC50 in data set [10] came to 50 µM.
`COc1cccc2c1C(=O)c1c(O)c3c(c(O)c1C2=O)C[C@@](O)(C(=O)CO)C[C@@H]3O[C@H]1C[C@H](N)[C@H](O)[C@H](C)O1` [Doxorubicin, reference compound] returned an IC50 at 72 h in data set [11] of 0.23 µM. Besides, the “% Apoptosis PBLs” value in [12] (10^−4 M) was determined as 21.7%; in [12] (10^−5 M), 13.2%.
As for `CC(=O)O[C@H]1C(=O)[C@@]2(C)[C@H]([C@H](OC(=O)c3ccccc3)[C@]3(O)C[C@H](OC(=O)[C@H](O)[C@@H](NC(=O)c4ccccc4)c4ccccc4)C(C)=C1C3(C)C)[C@]1(OC(C)=O)CO[C@@H]1C[C@@H]2O` [Taxol, reference compound], the IC50 at 72 h was found to be 0.00047 µM in data set [11] and 0.00075 µM in data set [13].
